Reference: US12281125B2, “Rapamycin derivatives” (NOVARTIS AG, priority 2018, dated 2025)

How the values were obtained:
[1] = tested on: mTORc1 signaling, pS6 (Ser240/244) in MEF TSCl−/− cells; test: Cell-based assay for rapalog potency (pS6) in MEF TSCl−/− cells; details: Mus musculus, 2 hours treatment, average from multiple assays
Protocol: Rapalog potency was determined using MEF TSCl−/− cell based assay. MEF TSCl−/− cells are Mouse Embryonic Fibroblasts deficient in Tuberous sclerosis protein—TSCl, which negatively regulates mTORc1 signaling and thus display constitutive mTORc1 activation, resulting in phosphorylation (activation) of downstream molecules. This cell-based assay is used to measure inhibition (de-phosphorylation) of S6 and 4EBP1 by rapalogs or other mTOR inhibitors.
MEF TSCl−/− cells were plated on Poly-D-lysine coated 384 well Griener clear bottom plates and incubated overnight at 37° C., 5% CO2. On the following day, cells were washed 8 times with “Hard starve” solution (1 L DPBS+1 g D-(+) glucose+10 ml of 7.5% Sodium Bicarbonate+20 ml of 1M HEPES) and incubated for further 2 hours in the same solution. Cells were next treated with compounds with decreasing concentrations (8 points at 3.16 fold dilutions) and incubated for 2 hours at 37° C., 5% CO2. Cells were fixed with 4% paraformaldehyde for 30 min and washed 5 times with TBS-EDTA followed by immuno-staining with fluorescent tag labeled antibodies for pS6 (Ser240/244) (Cell Signaling #9468) and p4EBP1 (Thr 37/46) (Cell Signaling #5123). Nuclei were visualized with Hoechst (ThermoFisher Scientific #H3570) staining. Cells were imaged (InCell 600) using respective fluorescence channels and the potency of mTOR inhibitors was defined by pS6 IC50 (nM).
In vitro potency of mTOR inhibitors was defined by pS6 IC50 (nM) in MEF TSCl−/− cells.
IC50 values are calculated as the average from multiple assays.

[2] = tested on: mTORC1 pathway (S6 phosphorylation) in rat liver; test: Inhibition of mTORc1 pathway in rat liver (p-S6/t-S6 immunoblot); format: in vivo; details: single oral dose 1, 3 and 10 mg/kg, liver at 3 hours, compared with vehicle control
Protocol: Rats were given a single oral dose of Compound 2 at 1, 3 or 10 mg/kg, and liver samples were collected at 3 hours following dosing. Rats treated with a vehicle were used as a control. […] GAPDH (glyceraldehyde 3-phosphate dehydrogenase) was used to control for protein loading. […] In the histogram depicted in FIG. 4B, average arbitrary values that indicate p-S6/t-S6 ratios are shown above each bar. X axis represents orally given doses (1, 3, or 10 mg/kg). Y-axis represents arbitrary units. Six rats were used in each experimental group. Data are mean±standard deviation. Data were analyzed with a one way ANOVA followed by Dunnett's multiple comparison tests, where means from all groups were compared to the vehicle treated group. […]. […]
Various organs were collected and frozen in liquid nitrogen. […] All tissues were stored at −80° C. until analyzed.
For protein extraction, snap frozen tissues were lysed in MSD Lysis Buffer (MSD, Rockville, Md.), supplemented with complete EDTA free protease inhibitor and PhosSTOP phosphatase inhibitor tablets (Roche, Manheim, Germany), and centrifuged at 13,000 g for 20 min at 4° C. […] Protein was quantified with BCA protein assay (Thermo Scientific, MA). […] Glyceraldehyde 3-phosphate dehydrogenase (GAPDH) detected with an anti-GAPDH antibody (#5174, Cell Signaling Technologies, MA) was used as a protein loading control. […]

[3] = Pharmacokinetic profile in rats; format: in vivo; details: male, Sprague-Dawley, blood, rat
Protocol: All procedures involving animals were approved by the Institutional Animal Care and Use Committee of the Novartis Institutes for Biomedical Research, Cambridge, Mass., USA. Adult Sprague Dawley (SD) male rats were purchased from Envigo (Indianapolis, USA). Once imported, rats were maintained at the specific pathogen free facilities with controlled temperature and light (22° C., 12-h light/12-h dark cycle: lights on at 0600 h/lights off at 1800 h) and with ad libitum access to food and water. Rats were acclimated for at least 3 days before experiments commenced.
Various organs were collected and frozen in liquid nitrogen. Blood was collected via a tail vein or a cardiac puncture (terminal) and frozen for further pharmacokinetics analyses. All tissues were stored at −80° C. until analyzed.
Concentrations were determined using HPLC/Mass spectrometry.
Compounds were administered to rats aged 7-9 weeks (N=3 per group) p.o. at 3 mg/kg and intravenously (i.v). at 1 mg/kg (FIGS. 3A and 3B).

FKBP12 = molecular target: T1, FKBP12 (Homo sapiens, UniProt P62942); test: SPR assay, binding affinity to FKBP12; details: equilibrium dissociation constant
T1 construct: made in house; host or cells: E. coli
T1 sequence (P62942 whole entry): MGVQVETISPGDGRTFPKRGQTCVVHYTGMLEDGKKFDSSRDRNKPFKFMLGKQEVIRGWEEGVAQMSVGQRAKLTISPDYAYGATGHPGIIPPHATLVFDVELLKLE
From the text: N-terminal avi-his6-tagged FKBP fusion proteins were expressed in E. coli and purified with nickel chromatography using standard procedures. Biotinylated his-avi-FKBPs were immobilized on a streptavidin chip using a Biacore 8K (GE Healthcare). […] The single-cycle kinetics data were fit to a 1:1 binding model to measure the association rate ka (1/Ms), the dissociation rate kd (1/s) and the affinity KD (M). […] The single-cycle kinetics data was fit to a 1:1 binding model to measure the association rate ka (1/Ms), the dissociation rate kd (1/s) and the apparent affinity KD (M) for ternary complex formation. The equilibrium dissociation constants (KD) to FKBP12, FKBP51, and FKBP52 are shown below in Table 6.

## CO[C@@H]1C[C@H](C[C@@H](C)[C@@H]2CC[C@H](C)/C=C(\C)[C@@H](O)[C@@H](OC)C(=O)[C@H](C)C[C@H](C)/C=C/C=C/C=C(\C)[C@@H](NS(C)(=O)=O)C[C@@H]3CC[C@@H](C)[C@@](O)(O3)C(=O)C(=O)N3CCCC[C@H]3C(=O)O2)CC[C@H]1O [Compound 2]
[1]
  IC50: 0.11 nM
[2]
  de-phosphorylation (inactivation) of S6 in rat livers: significant de-phosphorylation (inactivation) of S6
[3]; iv, i.v. 1 mg/kg
  clearance: 13 mL/min/kg
[3]; iv, i.v. 1 mg/kg, read-out: iv. terminal half-life (converted)
  half-life: 19 h
[3]; oral, p.o. 3 mg/kg and i.v. 1 mg/kg, solution formulation
  bioavailability: 16%
FKBP12
  Kd: 4.8 nM
